Results reported in patent US11739098B2 (BRISTOL-MYERS SQUIBB COMPANY, priority 2017, dated 2023).

Assays:
Format in all cases: cell-based
[1] = target: T1, human TLR7 (Homo sapiens, UniProt Q9NYK1); test: TLR7 inhibition reporter assay (HEK-Blue cells, SEAP reporter, gardiquimod stimulation); conditions: HEK-Blue cells overexpressing human TLR7, SEAP reporter, gardiquimod 7.5 μM
T1 construct: host or cells: HEK-Blue cells (HEK293-derived reporter line)
T1 sequence (Q9NYK1 27-1049): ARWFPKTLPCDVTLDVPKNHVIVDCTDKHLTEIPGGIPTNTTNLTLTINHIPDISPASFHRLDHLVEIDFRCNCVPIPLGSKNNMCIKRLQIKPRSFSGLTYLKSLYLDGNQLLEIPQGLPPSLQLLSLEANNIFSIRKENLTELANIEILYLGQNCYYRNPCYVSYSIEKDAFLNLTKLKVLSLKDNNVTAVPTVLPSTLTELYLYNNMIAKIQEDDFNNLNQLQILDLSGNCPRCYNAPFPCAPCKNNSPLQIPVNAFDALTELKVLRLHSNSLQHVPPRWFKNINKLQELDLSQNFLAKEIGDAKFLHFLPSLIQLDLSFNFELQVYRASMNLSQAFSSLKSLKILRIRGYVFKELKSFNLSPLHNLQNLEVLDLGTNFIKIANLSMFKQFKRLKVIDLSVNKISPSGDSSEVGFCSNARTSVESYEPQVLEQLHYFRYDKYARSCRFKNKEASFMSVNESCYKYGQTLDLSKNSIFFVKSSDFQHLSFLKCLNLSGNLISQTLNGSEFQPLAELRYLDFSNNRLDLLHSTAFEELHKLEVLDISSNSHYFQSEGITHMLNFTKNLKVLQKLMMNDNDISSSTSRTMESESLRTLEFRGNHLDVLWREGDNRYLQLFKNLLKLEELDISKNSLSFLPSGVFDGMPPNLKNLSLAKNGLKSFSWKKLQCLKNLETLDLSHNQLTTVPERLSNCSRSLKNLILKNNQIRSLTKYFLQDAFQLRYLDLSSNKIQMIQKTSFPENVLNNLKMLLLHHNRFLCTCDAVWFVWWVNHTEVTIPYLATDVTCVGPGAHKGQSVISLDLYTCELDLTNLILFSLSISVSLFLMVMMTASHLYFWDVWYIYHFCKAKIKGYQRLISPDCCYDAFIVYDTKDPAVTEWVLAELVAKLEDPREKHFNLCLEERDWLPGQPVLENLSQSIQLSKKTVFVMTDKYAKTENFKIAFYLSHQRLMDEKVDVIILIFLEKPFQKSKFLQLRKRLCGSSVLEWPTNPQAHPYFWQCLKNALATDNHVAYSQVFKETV
Procedure, shortened: (§1)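 After 22 h at 37 °C, SEAP secretion was measured from human TLR7-, TLR8- or TLR9-expressing HEK-Blue reporter cells given compound (0.05 nM–50 μM) 30 min before agonist: 7.5 μM gardiquimod, 15.9 μM R848 or 5 nM ODN2006 respectively. Percent inhibition referenced to agonist-plus-DMSO and known-inhibitor wells.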

[2] = target: T2, human TLR8 (Homo sapiens, UniProt Q9NR97); test: TLR8 inhibition reporter assay (HEK-Blue cells, SEAP reporter, R848 stimulation); conditions: HEK-Blue cells overexpressing human TLR8, SEAP reporter, R848 15.9 μM
T2 construct: host or cells: HEK-Blue cells (HEK293-derived reporter line)
T2 sequence (Q9NR97 27-1041): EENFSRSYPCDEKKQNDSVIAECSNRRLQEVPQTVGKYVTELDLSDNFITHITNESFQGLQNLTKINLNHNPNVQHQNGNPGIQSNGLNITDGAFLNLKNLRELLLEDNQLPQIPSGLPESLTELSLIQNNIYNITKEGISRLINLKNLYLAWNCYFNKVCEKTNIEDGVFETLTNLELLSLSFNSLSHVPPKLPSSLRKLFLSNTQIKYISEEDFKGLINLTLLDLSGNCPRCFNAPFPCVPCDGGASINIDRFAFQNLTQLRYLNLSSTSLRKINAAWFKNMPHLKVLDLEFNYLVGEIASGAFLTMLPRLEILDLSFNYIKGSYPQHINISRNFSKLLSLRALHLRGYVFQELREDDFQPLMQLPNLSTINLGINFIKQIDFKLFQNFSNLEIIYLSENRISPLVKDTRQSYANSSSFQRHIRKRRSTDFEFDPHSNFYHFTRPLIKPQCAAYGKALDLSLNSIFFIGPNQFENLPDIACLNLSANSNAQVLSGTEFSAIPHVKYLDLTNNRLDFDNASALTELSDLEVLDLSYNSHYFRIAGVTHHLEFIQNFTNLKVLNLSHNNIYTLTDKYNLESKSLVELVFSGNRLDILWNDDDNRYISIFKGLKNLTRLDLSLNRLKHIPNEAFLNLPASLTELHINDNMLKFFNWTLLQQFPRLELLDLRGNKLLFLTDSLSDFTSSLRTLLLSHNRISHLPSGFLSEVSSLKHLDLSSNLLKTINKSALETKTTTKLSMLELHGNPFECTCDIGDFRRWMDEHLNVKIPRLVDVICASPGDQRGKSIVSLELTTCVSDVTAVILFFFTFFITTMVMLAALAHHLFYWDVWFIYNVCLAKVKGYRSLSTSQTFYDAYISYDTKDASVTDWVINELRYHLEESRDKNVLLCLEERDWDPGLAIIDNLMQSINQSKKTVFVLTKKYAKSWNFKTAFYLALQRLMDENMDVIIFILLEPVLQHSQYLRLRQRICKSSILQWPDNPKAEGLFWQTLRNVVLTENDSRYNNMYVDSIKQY
Procedure, shortened: as §1

[3] = target: T3, human TLR9 (Homo sapiens, UniProt Q9NR96); test: TLR9 inhibition reporter assay (HEK-Blue cells, SEAP reporter, ODN2006 stimulation); conditions: HEK-Blue cells overexpressing human TLR9, SEAP reporter, ODN2006 5 nM
T3 construct: host or cells: HEK-Blue cells (HEK293-derived reporter line)
T3 sequence (Q9NR96 26-1032): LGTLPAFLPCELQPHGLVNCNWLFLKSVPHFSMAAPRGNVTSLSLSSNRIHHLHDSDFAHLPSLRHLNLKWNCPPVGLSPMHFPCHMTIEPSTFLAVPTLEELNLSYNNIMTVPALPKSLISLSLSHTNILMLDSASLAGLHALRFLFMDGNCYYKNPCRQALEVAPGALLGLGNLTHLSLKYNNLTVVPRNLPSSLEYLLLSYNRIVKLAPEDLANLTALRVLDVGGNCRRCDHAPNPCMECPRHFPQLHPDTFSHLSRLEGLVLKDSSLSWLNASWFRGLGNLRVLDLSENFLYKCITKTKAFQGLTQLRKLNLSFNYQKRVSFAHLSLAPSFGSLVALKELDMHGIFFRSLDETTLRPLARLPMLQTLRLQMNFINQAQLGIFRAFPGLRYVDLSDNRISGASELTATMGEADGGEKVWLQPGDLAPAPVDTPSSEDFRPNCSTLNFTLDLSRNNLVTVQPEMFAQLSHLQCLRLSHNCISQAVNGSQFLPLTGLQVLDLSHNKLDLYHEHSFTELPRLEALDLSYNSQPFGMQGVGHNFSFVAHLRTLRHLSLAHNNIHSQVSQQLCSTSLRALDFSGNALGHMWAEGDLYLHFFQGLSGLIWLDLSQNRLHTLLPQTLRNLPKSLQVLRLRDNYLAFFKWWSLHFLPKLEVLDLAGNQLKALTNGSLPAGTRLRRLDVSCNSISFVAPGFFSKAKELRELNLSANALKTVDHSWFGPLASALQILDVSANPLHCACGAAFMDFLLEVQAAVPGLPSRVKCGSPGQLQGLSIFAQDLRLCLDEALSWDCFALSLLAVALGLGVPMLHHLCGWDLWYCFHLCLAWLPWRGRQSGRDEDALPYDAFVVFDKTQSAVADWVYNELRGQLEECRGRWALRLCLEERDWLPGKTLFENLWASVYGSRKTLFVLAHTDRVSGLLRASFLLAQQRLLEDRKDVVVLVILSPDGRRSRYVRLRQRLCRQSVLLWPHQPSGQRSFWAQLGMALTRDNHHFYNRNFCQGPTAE
Procedure, shortened: as §1

Row | IC50 [1] | IC50 [2] | IC50 [3] | SMILES
1 | < 100 nM | < 100 nM | 1000 to 50000 nM | Cc1nnn2ccc(-c3[nH]c4ccc(C5CCN(CCS(C)(=O)=O)CC5)cc4c3C(C)C)cc12 [Example 793, 5-(3-isopropyl-5-(1-(2-(methylsulfonyl)ethyl)piperidin-4-yl)-1H-indol-2-yl)-3-methyl-[1,2,3]triazolo[1,5-a]pyridine]
2 | < 100 nM | < 100 nM | 1000 to 50000 nM | COCCN1CCC(c2ccc3[nH]c(-c4cc(OC)n5ncnc5c4)c(C(C)C)c3c2)CC1 [Example 780, 7-(3-isopropyl-5-(1-(2-methoxyethyl)piperidin-4-yl)-1H-indol-2-yl)-5-methoxy-[1,2,4]triazolo[1,5-a]pyridine]
3 | 100 to 1000 nM | < 100 nM | 1000 to 50000 nM | CC(C)c1c(-c2cnc3ncnn3c2)[nH]c2ccc(C3CCN(CC(C)(C)O)CC3)cc12 [Example 773, 1-(4-(2-([1,2,4]triazolo[1,5-a]pyrimidin-6-yl)-3-isopropyl-1H-indol-5-yl)piperidin-1-yl)-2-methylpropan-2-ol]
4 | < 100 nM | < 100 nM | 1000 to 50000 nM | Cc1cc(-c2[nH]c3ccc(C4CCNCC4)cc3c2C(C)C)cc2cnnn12 [Example 78, 5-(3-isopropyl-5-(piperidin-4-yl)-1H-indol-2-yl)-7-methyl-[1,2,3]triazolo[1,5-a]pyridine]
5 | 1000 to 50000 nM | 1000 to 50000 nM | 1000 to 50000 nM | Cc1cc(-c2[nH]c3ccc(C4CCN(C5COC5)CC4)cc3c2C(C)C)cn2nncc12 [Example 737, 6-(3-isopropyl-5-(1-(oxetan-3-yl)piperidin-4-yl)-1H-indol-2-yl)-4-methyl-[1,2,3]triazolo[1,5-a]pyridine]
6 | < 100 nM | < 100 nM | 1000 to 50000 nM | Cc1c(C2CCNCC2)ccc2[nH]c(-c3ccnc4[nH]ncc34)c(C)c12 [Example 256, 4-(3,4-dimethyl-5-(piperidin-4-yl)-1H-indol-2-yl)-1H-pyrazolo[3,4-b]pyridine]
7 | 100 to 1000 nM | 100 to 1000 nM | 1000 to 50000 nM | Cc1cc(-c2[nH]c3ccc(C4CCN(CC(C)(C)O)CC4)cc3c2C(C)C)cc2cnn(C)c12 [Example 762, 1-(4-(2-(1,7-dimethyl-1H-indazol-5-yl)-3-isopropyl-1H-indol-5-yl)piperidin-1-yl)-2-methylpropan-2-ol]
8 | < 100 nM | < 100 nM | 100 to 1000 nM | CC(C)c1c(-c2ccc3[nH]nc(N)c3c2)[nH]c2ccc(C3CCNCC3)cc12 [Example 93, 5-(3-isopropyl-5-(piperidin-4-yl)-1H-indol-2-yl)-1H-indazol-3-amine]
9 | < 100 nM | < 100 nM | 1000 to 50000 nM | Cc1cc(-c2[nH]c3ccc(C4CCN(C(=O)CCN5CCC(F)CC5)CC4)cc3c2C(C)C)cn2nnnc12 [Example 633, 3-(4-fluoropiperidin-1-yl)-1-(4-(3-isopropyl-2-(8-methyltetrazolo[1,5-a]pyridin-6-yl)-1H-ndol-5-yl)piperidin-1-yl)propan-1-one]
10 | 100 to 1000 nM | < 100 nM | 1000 to 50000 nM | CCc1c(-c2ccnc3[nH]ncc23)[nH]c2ccc(C3CCN(Cc4cncs4)CC3)cc12 [Example 928, 5-((4-(3-ethyl-2-(1H-pyrazolo[3,4-b]pyridin-4-yl)-1H-indol-5-yl)piperidin-1-yl)methyl)thiazole]
11 | < 100 nM | 100 to 1000 nM | > 50000 nM | Cc1cc(-c2[nH]c3ccc(C4CCN(C(=O)CCN5CCC(F)(F)C5)CC4)cc3c2C(C)C)cn2nnnc12 [Example 626, 3-(3,3-difluoropyrrolidin-1-yl)-1-(4-(3-isopropyl-2-(8-methyltetrazolo[1,5-a]pyridin-6-yl)-1H-indol-5-yl)piperidin-1-yl)propan-1-one]
12 | < 100 nM | < 100 nM | 100 to 1000 nM | CNCCN1CCC(c2ccc3[nH]c(-c4ccnc5[nH]ncc45)c(C(C)C)c3c2)C(F)C1 (stereo not drawn) [Example 677, 2-(3-fluoro-4-(3-isopropyl-2-(1H-pyrazolo[3,4-b]pyridin-4-yl)-1H-indol-5-yl)piperidin-1-yl)-N-methylethan-1-amine]
13 | < 100 nM | < 100 nM | 1000 to 50000 nM | CC(C)c1c(-c2ccnc3[nH]ncc23)[nH]c2ccc(C3CCN(Cc4ncc[nH]4)CC3)cc12 [Example 914, 4-(5-(1-((1H-imidazol-2-yl)methyl)piperidin-4-yl)-3-isopropyl-1H-indol-2-yl)-1H-pyrazolo[3,4-b]pyridine]
14 | 100 to 1000 nM | 100 to 1000 nM | 1000 to 50000 nM | CC(C)c1c(-c2ccnc3c2ncn3C)[nH]c2ccc(C3CCNCC3)cc12 [Example 45, 7-(3-isopropyl-5-(piperidin-4-yl)-1H-indol-2-yl)-3-methyl-3H-imidazo[4,5-b]pyridine]
